Measured values taken from patent US8129371B2, “Thienopyrimidine and pyrazolopyrimidine compounds and their use as mTOR kinase and PI3 kinase inhibitors” (Wyeth LLC, priority 2007, dated 2012).
Where two headings read alike, the source gives them in different places.

Experiments:
[1] = target: T1, Human mTOR (FLAG-TOR) (Homo sapiens, UniProt P42345); experiment: Human mTOR kinase assay with purified enzyme, DELFIA format; type: biochemical
T1 construct: FLAG
Procedure, shortened: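 Purified FLAG-mTOR in HEPES pH 7.4 buffer with 10 mM MnCl2 was preincubated with inhibitor and reacted 2 h at room temperature with His6-S6K substrate, then stopped with EDTA/EGTA. Phospho-T389 S6K detected by DELFIA with Eu-labelled antibody (40 ng/mL) after plate capture; inhibition computed from signal.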

[2] = target: T2, PI3K (Homo sapiens, UniProt P48736); experiment: Fluorescence polarization assay for PI3K; type: biochemical; settings: read-out: PI3 Kinase γ IC50
T2 construct: PI3 Kinase γ IC50; other: PI3 Kinase γ; other: PI3 Kinase γ isoform, fluorescence polarization
T2 sequence (P48736 whole entry, canonical isoform): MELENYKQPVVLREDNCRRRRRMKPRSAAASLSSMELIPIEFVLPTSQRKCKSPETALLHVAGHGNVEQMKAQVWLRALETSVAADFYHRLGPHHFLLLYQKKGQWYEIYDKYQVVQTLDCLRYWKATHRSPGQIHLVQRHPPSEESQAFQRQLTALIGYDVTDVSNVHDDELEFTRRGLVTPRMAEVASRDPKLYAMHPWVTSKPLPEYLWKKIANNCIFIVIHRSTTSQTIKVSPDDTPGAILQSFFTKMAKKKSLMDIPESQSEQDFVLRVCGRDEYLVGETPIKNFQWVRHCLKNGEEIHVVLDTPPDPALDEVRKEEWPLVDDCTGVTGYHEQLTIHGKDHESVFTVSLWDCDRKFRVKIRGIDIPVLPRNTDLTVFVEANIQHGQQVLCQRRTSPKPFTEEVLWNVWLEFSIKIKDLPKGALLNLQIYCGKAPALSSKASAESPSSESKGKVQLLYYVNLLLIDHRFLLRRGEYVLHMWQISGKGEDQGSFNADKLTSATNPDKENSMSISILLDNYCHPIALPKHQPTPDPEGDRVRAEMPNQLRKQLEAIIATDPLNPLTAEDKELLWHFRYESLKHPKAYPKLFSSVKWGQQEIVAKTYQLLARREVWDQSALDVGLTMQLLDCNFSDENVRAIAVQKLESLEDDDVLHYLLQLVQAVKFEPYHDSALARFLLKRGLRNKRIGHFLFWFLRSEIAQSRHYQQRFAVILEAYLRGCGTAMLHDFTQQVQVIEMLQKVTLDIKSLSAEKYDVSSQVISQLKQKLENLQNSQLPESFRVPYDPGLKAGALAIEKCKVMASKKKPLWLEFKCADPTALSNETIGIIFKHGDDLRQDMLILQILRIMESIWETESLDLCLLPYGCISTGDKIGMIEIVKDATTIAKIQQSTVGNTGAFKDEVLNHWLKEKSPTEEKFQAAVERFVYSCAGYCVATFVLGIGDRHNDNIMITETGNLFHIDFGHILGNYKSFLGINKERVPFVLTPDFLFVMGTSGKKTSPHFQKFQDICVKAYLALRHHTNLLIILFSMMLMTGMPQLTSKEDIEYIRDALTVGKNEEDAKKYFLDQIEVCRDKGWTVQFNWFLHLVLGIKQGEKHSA
Procedure, shortened: (§1)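 PI3K was preincubated with compound (final DMSO 1%), and the reaction was started with PIP2/ATP substrate and run 30–60 min. It was stopped with a detector mix giving 10 nM red probe and 70 nM GST-GRP.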

[3] = target: T3, PI3K (Homo sapiens, UniProt P42336); experiment: Fluorescence polarization assay for PI3K; type: biochemical; settings: read-out: PI3 Kinase α IC50
T3 construct: PI3 Kinase α IC50; other: PI3 Kinase α; other: PI3 Kinase α isoform, fluorescence polarization
T3 sequence (P42336 whole entry, canonical isoform): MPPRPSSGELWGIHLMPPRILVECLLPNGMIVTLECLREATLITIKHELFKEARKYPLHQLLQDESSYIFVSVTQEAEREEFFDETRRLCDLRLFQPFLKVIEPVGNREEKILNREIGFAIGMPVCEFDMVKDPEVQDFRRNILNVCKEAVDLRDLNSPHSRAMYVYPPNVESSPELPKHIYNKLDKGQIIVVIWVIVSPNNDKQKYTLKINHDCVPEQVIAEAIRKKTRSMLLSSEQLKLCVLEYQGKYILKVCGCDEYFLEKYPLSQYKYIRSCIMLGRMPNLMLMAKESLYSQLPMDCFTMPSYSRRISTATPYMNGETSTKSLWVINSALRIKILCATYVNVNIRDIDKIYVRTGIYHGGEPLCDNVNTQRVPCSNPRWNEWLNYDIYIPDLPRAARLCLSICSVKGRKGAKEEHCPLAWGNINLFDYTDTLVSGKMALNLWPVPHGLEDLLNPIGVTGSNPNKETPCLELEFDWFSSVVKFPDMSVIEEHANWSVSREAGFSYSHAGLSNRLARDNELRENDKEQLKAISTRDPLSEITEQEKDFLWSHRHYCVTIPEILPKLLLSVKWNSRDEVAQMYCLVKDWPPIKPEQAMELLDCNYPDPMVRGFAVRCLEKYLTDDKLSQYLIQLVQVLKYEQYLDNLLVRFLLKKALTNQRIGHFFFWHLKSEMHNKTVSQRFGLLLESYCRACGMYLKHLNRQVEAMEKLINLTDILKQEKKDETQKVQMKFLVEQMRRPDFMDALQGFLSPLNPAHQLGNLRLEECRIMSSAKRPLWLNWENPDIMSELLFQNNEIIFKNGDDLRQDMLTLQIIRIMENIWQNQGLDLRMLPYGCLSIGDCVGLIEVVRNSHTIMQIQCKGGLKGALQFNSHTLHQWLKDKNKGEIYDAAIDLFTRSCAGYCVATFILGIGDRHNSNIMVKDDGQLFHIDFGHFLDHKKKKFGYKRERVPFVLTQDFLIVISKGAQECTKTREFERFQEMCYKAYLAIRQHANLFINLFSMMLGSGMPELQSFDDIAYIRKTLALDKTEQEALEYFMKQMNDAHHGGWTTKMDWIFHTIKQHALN
Procedure, shortened: as §1

[4] = tested on: breast line MDA468; experiment: In vitro cell culture growth assay (MTS), MDA468; type: cell-based; settings: Homo sapiens, 72 h, MDA468 cells, three days after drug treatment
Procedure, shortened: (§2)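 Plate cells; add inhibitors on day 1; after 3 days' treatment, add MTS; read A490; express as percent growth of vehicle-treated control.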

[5] = tested on: prostate line LNCap; experiment: In vitro cell culture growth assay (MTS), LNCap; type: cell-based; settings: Homo sapiens, LNCaP, 72 h, LNCap cells, three days after drug treatment
Procedure, shortened: as §2

[6] = purified human mTOR enzyme, DELFIA format
[7] = PI3 Kinase γ isoform, fluorescence polarization
[8] = PI3 Kinase α isoform, fluorescence polarization

Compound	IC50 [1, 6] [nM]	IC50 [2, 7] [nM]	IC50 [3, 8] [nM]	IC50 [5] [nM]	IC50 [1] [nM]	IC50 ([2]; PI3 Kinase γ) [nM]	IC50 ([3]; PI3 Kinase α) [nM]	IC50 [4] [nM]
O=C1CCC(n2ncc3c(N4CC5CCC(C4)O5)nc(-c4ccc(NC(=O)NC5CC5)cc4)nc32)CC1 [Example 401, 1-cyclopropyl-3-{4-[4-(8-oxa-3-azabicyclo[3.2.1]oct-3-yl)-1-(4-oxocyclohexyl)-1H-pyrazolo[3,4-d]pyrimidin-6-yl]phenyl}urea]	0.445	> 10000	2110	1				10
CC(C)(C)OC(=O)N1CCC(n2ncc3c(N4CC5CCC(C4)O5)nc(-c4ccc(NC(=O)Nc5ccccc5)cc4)nc32)CC1 [Example 23, tert-butyl 4-[4-(8-oxa-3-azabicyclo[3.2.1]oct-3-yl)-6-{4-[(phenylcarbamoyl)amino]phenyl}-1H-pyrazolo[3,4-d]pyrimidin-1-yl]piperidine-1-carboxylate]				40	0.7	> 10000	888	180
CCNC(=O)Nc1ccc(-c2nc(N3CC4CCC(C3)O4)c3cnn(C4CCN(C(=O)OC(C)(C)C)CC4)c3n2)cc1 [Example 20, tert-butyl4-[6-{4-[(ethylcarbamoyl)amino]phenyl}-4-(8-oxa-3-azabicyclo[3.2.1]oct-3-yl)-1H-pyrazolo[3,4-d]pyrimidin-1-yl]piperidine-1-carboxylate]				27	0.47	> 10000	2350	98
COCC(COC)n1ncc2c(N3CC4CCC(C3)O4)nc(-c3ccc(NC(=O)Nc4ccc(N5CCN(C)CC5)cc4)cc3)nc21 [Example 327, 1-(4-{1-[2-methoxy-1-(methoxymethyl)ethyl]-4-(8-oxa-3-azabicyclo[3.2.1]oct-3-yl)-1H-pyrazolo[3,4-d]pyrimidin-6-yl}phenyl)-3-[4-(4-methylpiperazin-1-yl)phenyl]urea]	3.75	3490	764	3				50
OCCNc1ccc(-c2nc(N3CC4CCC(C3)O4)c3cnn(C4CCC5(CC4)OCCO5)c3n2)cc1 [Example 132, 2-({4-[1-(1,4-dioxaspiro[4.5]dec-8-yl)-4-(8-oxa-3-azabicyclo[3.2.1]oct-3-yl)-1H-pyrazolo[3,4-d]pyrimidin-6-yl]phenyl}amino)ethanol]				580	15.5	> 10000	> 10000	5000
CCNC(=O)Nc1ccc(-c2nc(N3CC4CCC(C3)O4)c3cnn(CCO)c3n2)cc1 [Example 194, 1-ethyl-3-{4-[1-(2-hydroxyethyl)-4-(8-oxa-3-azabicyclo[3.2.1]oct-3-yl)-1H-pyrazolo[3,4-d]pyrimidin-6-yl]phenyl}urea]				280	2.7	> 10000	1500	800
O=C(Nc1ccc(-c2nc(N3C[C@@H]4C[C@H]3CO4)c3cnn(CC(F)(F)F)c3n2)cc1)OCCO [Example 291, 2-hydroxyethyl (4-{4-[(1S,4S)-2-oxa-5-azabicyclo[2.2.1]hept-5-yl]-1-(2,2,2-trifluoroethyl)-1H-pyrazolo[3,4-d]pyrimidin-6-yl}phenyl)carbamate]				170	9	> 10000	6140	300
COC(=O)Nc1ccc(-c2nc(N3CC4CCC(C3)O4)c3cnn(C4CCC(O)CC4)c3n2)cc1 (stereo not shown) [Example 137, methyl {4-[1-(4-hydroxycyclohexyl)-4-(8-oxa-3-azabicyclo[3.2.1]oct-3-yl)-1H-pyrazolo[3,4-d]pyrimidin-6-yl]phenyl}carbamate]				200	3.75	> 10000	6660	1700
O=C(Nc1ccc(-c2nc(N3C4CCC3COC4)c3cnn(CC(F)(F)F)c3n2)cc1)OCCO [Example 266, 2-hydroxyethyl {4-[4-(3-oxa-8-azabicyclo[3.2.1]oct-8-yl)-1-(2,2,2-trifluoroethyl)-1H-pyrazolo[3,4-d]pyrimidin-6-yl]phenyl}carbamate]				27	0.615	> 10000	2720	180
CCOC(=O)N1CCC(n2ncc3c(N4CC5CCC(C4)O5)nc(-c4ccc(NC(=O)NC5CCN(C(=O)OC(C)(C)C)CC5)cc4)nc32)CC1 [Example 37, ethyl 4-{6-[4-({[1-(tert-butoxycarbonyl)piperidin-4-yl]carbamoyl}amino)phenyl]-4-(8-oxa-3-azabicyclo[3.2.1]oct-3-yl)-1H-pyrazolo[3,4-d]pyrimidin-1-yl}piperidine-1-carboxylate]				1000	37	7390	8620	> 60000
COC(=O)N1CCC(n2ncc3c(N4CC5CCC(C4)O5)nc(-c4ccc(NC(=O)Nc5cccnc5)cc4)nc32)CC1 [Example 13, methyl 4-[4-(8-oxa-3-azabicyclo[3.2.1]oct-3-yl)-6-{4-[(pyridin-3-ylcarbamoyl)amino]phenyl}-1H-pyrazolo[3,4-d]pyrimidin-1-yl]piperidine-1-carboxylate]				15	0.1	6840	613	75
O=C(Nc1ccc(-c2nc(N3C4CCC3COC4)c3cnn(CC(F)(F)F)c3n2)cc1)Nc1ccc(N2CCNCC2)cc1 [Example 318, 1-{4-[4-(3-oxa-8-azabicyclo[3.2.1]oct-8-yl)-1-(2,2,2-trifluoroethyl)-1H-pyrazolo[3,4-d]pyrimidin-6-yl]phenyl}-3-(4-piperazin-1-ylphenyl)urea]	0.19	2270	173	< 1				1

More lines, main results first:

IC50 [1, 6] [nM]	IC50 [2, 7] [nM]	IC50 [3, 8] [nM]	IC50 [5] [nM]	IC50 [1] [nM]	IC50 ([2]; PI3 Kinase γ) [nM]	IC50 ([3]; PI3 Kinase α) [nM]	Compound	IC50 [4] [nM]
			< 1	0.125	342	40	CC(C)n1ncc2c(N3CC4CCC(C3)O4)nc(-c3ccc(NC(=O)Nc4ccncc4)cc3)nc21 [Example 149, 1-{4-[1-isopropyl-4-(8-oxa-3-azabicyclo[3.2.1]oct-3-yl)-1H-pyrazolo[3,4-d]pyrimidin-6-yl]phenyl}-3-pyridin-4-ylurea]	4
0.175	2170	297	2				COC1CCC(n2ncc3c(N4CC5CCC(C4)O5)nc(-c4ccc(NC(=O)Nc5cccnc5)cc4)nc32)CC1 (stereo not shown) [Example 384, 1-{4-[1-(4-methoxycyclohexyl)-4-(8-oxa-3-azabicyclo[3.2.1]oct-3-yl)-1H-pyrazolo[3,4-d]pyrimidin-6-yl]phenyl}-3-pyridin-3-ylurea]	22
			100	2.3	2310	273	O=C(Nc1ccccc1)Nc1ccc(-c2nc(N3CC4CCC(C3)O4)c3cnn(C4CCNCC4)c3n2)cc1 [Example 29, 1-{4-[4-(8-oxa-3-azabicyclo[3.2.1]oct-3-yl)-1-piperidin-4-yl-1H-pyrazolo[3,4-d]pyrimidin-6-yl]phenyl}-3-phenylurea]	280
			17	0.885	> 10000	2120	O=C1CCC(n2ncc3c(N4CC5CCC(C4)O5)nc(-c4ccc(NC(=O)OCCO)cc4)nc32)CC1 [Example 211, 2-hydroxyethyl {4-[4-(8-oxa-3-azabicyclo[3.2.1]oct-3-yl)-1-(4-oxocyclohexyl)-1H-pyrazolo[3,4-d]pyrimidin-6-yl]phenyl}carbamate]	120
1.01	1530	179	32				CS(=O)(=O)N1CCN(Cc2cc3nc(-c4ccc(NC(=O)NC5CC5)cc4)nc(N4CC5CCC(C4)O5)c3s2)CC1 [Example 431, 1-cyclopropyl-3-{4-[6-{[4-(methylsulfonyl)piperazin-1-yl]methyl}-4-(8-oxa-3-azabicyclo[3.2.1]oct-3-yl)thieno[3,2-d]pyrimidin-2-yl]phenyl}urea]	200
			120	2.2	> 10000	2100	CNC(=O)Nc1ccc(-c2nc(N3CC4CCC(C3)O4)c3cnn(Cc4ccccc4)c3n2)cc1 [Example 77, 1-{4-[1-benzyl-4-(8-oxa-3-azabicyclo[3.2.1]oct-3-yl)-1H-pyrazolo[3,4-d]pyrimidin-6-yl]phenyl}-3-methylurea]	700
			4000	36.5	7480	1430	COC(=O)N1CCC(n2ncc3c(N4CC5CCC(C4)O5)nc(-c4ccc(NC(=O)OCCN)cc4)nc32)CC1 [Example 114, methyl 4-[6-(4-{[(2-aminoethoxy)carbonyl]amino}phenyl)-4-(8-oxa-3-azabicyclo[3.2.1]oct-3-yl)-1H-pyrazolo[3,4-d]pyrimidin-1-yl]piperidine-1-carboxylate]	6000
			1	0.155	6370	648	CC(C)n1ncc2c(N3CC4CCC(C3)O4)nc(-c3ccc(NC(=O)NCCF)cc3)nc21 [Example 141, 1-(2-fluoroethyl)-3-{4-[1-isopropyl-4-(8-oxa-3-azabicyclo[3.2.1]oct-3-yl)-1H-pyrazolo[3,4-d]pyrimidin-6-yl]phenyl}urea]	40
